Series [1] deals with TGF-beta receptor type-1 (Homo sapiens, UniProt P36897, T204D). Kind of series: Inhibition of TGFbeta type receptor 1 ALK5 (T204D) expressed in Sf9 cells.
The nature of series [2]: Antiproliferative activity against mink Mv1Lu-p3TP-Lux cells by luciferase reporter assay. It is filed as functional, cell-based, Neovison vison. The note with it: Neogale vison.
Series [3] deals with NIH3T3. Kind of series: Antiproliferative activity against mouse NIH3T3 cells by [3H]thymidine assay. The class given is functional, cell-based.
For series [4], the system named is Caco-2. Put plainly: Permeability from apical to basolateral side of human Caco-2 cell membrane. It is filed as ADME, cell-based.
Series [5] is described as follows: Metabolic stability in rat microsomes. Note: time not given here. It is filed as ADME, Microsome.
Series [6] concerns Liver microsomes. Put plainly: Metabolic stability in human liver microsomes. Note: time not given here. It is filed as ADME, Microsome.
Series [7] relates to Mus musculus. Put plainly: Inhibition of TGFbeta type receptor 1 in orally dosed human Calu6 cells xenografted mouse by IVTI […] assay. The following applies: Calu-6. It is filed as functional, organism-based.
For series [8], the system named is Mus musculus. Put plainly: Inhibition of TGFbeta type receptor 1 in human Calu6 cells xenografted mouse at 50 mg/kg, po by single point IVTI assay. The class given is functional, Calu-6. More on the design: scale not given: the % may be the effect or the level left.

Each structure is given as a SMILES string. Where only a bound is given, the exact number is not on record here.

With `COC(=O)c1ccc2nccc(-c3c(-c4cccc(C)n4)nn4c3CCC4)c2c1`, the 50% inhibitory concentration (IC50) turned out to be 526 nM in series [1] and 403 nM in series [2].
Consider `c1ccc(-c2nn3c(c2-c2ccnc4cc(OCC5CCCO5)ccc24)CCC3)nc1` (stereo not given), for which the figures for the IC50 in series [3], in series [1] and in series [2] were 250 nM, 130 nM and 80 nM, respectively. The same compound yielded a permeability in series [4] of 42%. Besides, the values for the Stability in series [5] and in series [6] were 97% and 55%, respectively.
In turn, `CN(C)Cc1ccc(Oc2ccc3c(-c4c(-c5ccccn5)nn5c4CCC5)ccnc3c2)cc1` had an IC50 in series [1] of 750 nM.
Regarding `Clc1cc(-c2c(-c3ccccn3)nn3c2CCC3)c2ccccc2n1`, the IC50 is > 20000 nM in series [3], 19800 nM in series [1] and > 20000 nM in series [2].
`c1ccc(-c2nn3c(c2-c2cc(N4CCCC4)nc4ccccc24)CCC3)nc1`: the IC50 in series [1] and in series [2] was > 20000 nM each time.
`NC(=O)c1ccc(Oc2ccc3c(-c4c(-c5ccccn5)nn5c4CCC5)ccnc3c2)cc1` gave an IC50 in series [1] of 1100 nM.
`O=C(O)c1ccc(Oc2ccc3c(-c4c(-c5ccccn5)nn5c4CCC5)ccnc3c2)cc1`: the IC50 in series [3] was > 20000 nM; in series [1], 4800 nM; in series [2] it was > 20000 nM.
With `Cc1cccc(-c2nn3c(c2-c2ccnc4ccc(C(=O)NCCN(C)C)cc24)CCC3)n1`, the half-maximal inhibitory concentration (IC50) in series [3] turned out to be 2270 nM; in series [1], 193 nM; in series [2] it was 468 nM.
In the case of `COc1cc(-c2c(-c3ccccn3)nn3c2CCC3)c2ccccc2n1`, the IC50 in series [1] was > 20000 nM.
`CN1CCCC1CCCOc1ccc2c(-c3c(-c4ccccn4)nn4c3CCC4)ccnc2c1` (stereo not given): the concentration giving a half-maximal response (EC50) in series [7] worked out at 377 nM. In addition, the IC50 amounted to 20 nM in series [3], 72 nM in series [1] and 17 nM in series [2]. This compound also registered an Activity in series [8] of 75%.
Take `ClCCOc1ccc2c(-c3c(-c4ccccn4)nn4c3CCC4)ccnc2c1`: the IC50 came to 97 nM in series [3], 33 nM in series [1] and 66 nM in series [2]. The compound further came in with a permeability in series [4] of 54%. Moreover, the Stability in series [5] and in series [6] was 99% throughout.
With `CN(C)C(=O)c1ccc(Oc2ccc3c(-c4c(-c5ccccn5)nn5c4CCC5)ccnc3c2)cc1`, the concentration for half-maximal inhibition (IC50) came to 5100 nM in series [3], 1100 nM in series [1] and 15000 nM in series [2].
In the same order, the values of `CN(C)CCCCCOc1ccc2c(-c3c(-c4ccccn4)nn4c3CCC4)ccnc2c1` are 51 nM, 47 nM and 24 nM.
Take `CCSc1cc(-c2c(-c3ccccn3)nn3c2CCC3)c2ccccc2n1`: the IC50 in series [1] and in series [2] was > 20000 nM in each case.
With `Oc1ccc2c(-c3c(-c4ccccn4)nn4c3CCC4)ccnc2c1`, the IC50 in series [3] stood at 420 nM; in series [1], 160 nM; in series [2], 200 nM.
Regarding `N#Cc1ccc(Oc2ccc3c(-c4c(-c5ccccn5)nn5c4CCC5)ccnc3c2)cc1`, the IC50 in series [1] is 1200 nM.
In the case of `CN1CCN(C(=O)COc2ccc3c(-c4c(-c5ccccn5)nn5c4CCC5)ccnc3c2)CC1`, the results for the IC50 in series [3], in series [1] and in series [2] were 730 nM, 49 nM and 260 nM, respectively.
Regarding `CN1CCN(CCCOc2ccc3c(-c4c(-c5ccccn5)nn5c4CCC5)ccnc3c2)CC1`, the EC50 in series [7] came to 1100 nM. The figures for the concentration for half-maximal inhibition (IC50) in series [3], in series [1] and in series [2] were 92 nM, 74 nM and 44 nM, respectively. The same compound returned an Activity in series [8] of 70%. Besides, the permeability in series [4] was found to be 13%. Moreover, the Stability came to 46% in series [5] and 17% in series [6].
In the case of `Cc1cccc(-c2nn3c(c2-c2ccnc4ccc(Br)cc24)CCC3)n1`, the IC50 in series [3] was 338 nM; in series [1] it was 89 nM; in series [2] it was 55 nM.
Compound `c1ccc(-c2n[nH]cc2-c2ccnc3ccccc23)nc1` had an IC50 in series [3] of 81 nM. The compound further returned a permeability in series [4] of 76%. For the same compound, the values for the Stability in series [5] and in series [6] were 98% and 22%, respectively.
Consider `Cc1cccc(-c2nn3c(c2-c2ccnc4ccc(OC(F)(F)F)cc24)CCC3)n1`, for which the 50% inhibitory concentration (IC50) in series [3] was 254 nM; in series [1] it was 141 nM; in series [2], 201 nM.
Consider `CCN(C)CCOc1ccc2c(-c3c(-c4ccccn4)nn4c3CCC4)ccnc2c1`, for which the EC50 in series [7] was 343 nM. Further, the IC50 in series [3] worked out at 72 nM; in series [1], 85 nM; in series [2], 61 nM. This compound gave an Activity in series [8] of 70%. This compound also had a permeability in series [4] of 27%. In addition, the Stability in series [5] was 57%; in series [6] it was 29%.
Turning to `CN1CCN(CCOc2ccc3c(-c4c(-c5ccccn5)nn5c4CCC5)ccnc3c2)CC1`, a half-maximal effect in series [7] (EC50) was put at 919 nM. In addition, the 50% inhibitory concentration (IC50) in series [3] is 54 nM; in series [1], 100 nM; in series [2] it was 38 nM. In series [8], this compound registered an Activity of 73%.
`COc1cc(OC)c2nccc(-c3c(-c4cccc(C)n4)nn4c3CCC4)c2c1`: the IC50 in series [3] was > 20000 nM; in series [1] it was 3810 nM; in series [2] it was 7200 nM.
Take `Cc1cccc(-c2nn3c(c2-c2ccnc4c(F)cccc24)CCC3)n1`: the IC50 in series [3] stood at 1030 nM; in series [1] it was 928 nM; in series [2], 951 nM.

The values above are taken from ChEMBL document CHEMBL1144852, “Optimization of a dihydropyrrolopyrazole series of transforming growth factor-beta type I receptor kinase domain inhibitors: discovery of an orally bioavailable transforming growth factor-beta receptor type I inhibitor as antitumor agent” (J Med Chem, 2008).
